Article PMC9050923, “6,N^2-Diaryl-1,3,5-triazine-2,4-diamines: synthesis, antiproliferative activity and 3D-QSAR modeling” (RSC Advances, 2020)
Where two headings read alike, the source gives them in different places.

Key:
MDA-MB231 = assay: MTT assay, MDA-MB231 breast cancer cells; format: cell-based; conditions: Homo sapiens, MDA-MB-231; for viability at 10 µM: 72 h after the treatment, mean of three independent experiments, read-out: Percentage of cell viability MDA-MB231
Outline: (§1)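 Cells seeded 24 h at 37 °C, 5% CO2, then treated 72 h with a concentration range; single-point screen at 10 μM gave % viability. MTT (0.5 mg/mL, 4 h), DMSO-solubilised, A570; GI50 from sigmoidal curves, mean of three experiments.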

SKBR-3 = assay: MTT assay, SKBR-3 breast cancer cells; format: cell-based; conditions: Homo sapiens, SK-BR-3, MTT; for viability at 10 µM: 72 h after the treatment, mean of three independent experiments, read-out: Percentage of cell viability SKBR-3; for GI50: 72 h, mean of three independent experiments ± SEM
Outline: as §1

MCF-7 = assay: MTT assay, MCF-7 breast cancer cells; format: cell-based; conditions: Homo sapiens; for viability at 10 µM: MCF7, 10 μM, 72 h after the treatment, mean of three independent experiments, read-out: Percentage of cell viability MCF-7; for GI50: MCF7, 72 h, mean of three independent experiments ± SEM
Outline: as §1

MCF-10A = assay: MTT assay, MCF-10A normal breast cells; format: cell-based; conditions: Homo sapiens, 72 h, read-out: GI50 (μM) ± SEM MCF-10A
Description: All the compounds, selected for determination of GI50 values against MDA-MB231 cells, were also used for the experiments with MCF-10A normal breast cells.
The cytotoxic activity of 6,N^2-diaryl-1,3,5-triazine-2,4-diamines (1–126) was evaluated against three breast carcinoma cell lines (MDA-MB231, SKBR-3, and MCF-7) and normal breast cell line (MCF-10A) by MTT assay.[22] All cells were obtained from the American Type Culture Collection and were grown in 10% fetal bovine serum and 1% pen-strep antibiotic supplemented media (DMEM for MDA-MB231 and SKBR-3, RPMI for MCF-7, and MEGM for MCF-10A). For MTT assay, 20 000 to 75 000 cells per mL (based on the doubling time for each cell line) were seeded in 96 well plates and incubated for 24 h at 37 °C in 5% CO2 incubator. Then, compounds at different concentrations were added followed by the incubation at 37 °C for 72 h. After that, MTT solution (0.5 mg mL^−1) was added and the plates were incubated for another 4 h. The supernatant was then discarded and 100 μL of DMSO was added to each well. The plates were then read by Tecan NanoQuant (model: infinite m200 pro) plate reader and absorbance was measured at 570 nm. GI50 values were calculated using sigmoidal concentration–response curves (see ESI ^†) generated using the GraphPad Prism 7 program. Three independent experiments were carried out and the data were represented as mean of the three experiments.

[1] = −log[GI50], MDA-MB231, read-out: Experimental pGI50 (converted)
[2] = 72 h, MTT, mean of three independent experiments ± SEM, read-out: GI50 (μM) ± SEM MDA-MB231

melting point [°C]	GI50 (MDA-MB231; [1]) [µM]	GI50 (MDA-MB231; [2]) [µM]	GI50 (SKBR-3) [µM]	GI50 (MCF-7) [µM]	SMILES	viability at 10 µM (MDA-MB231; MTT) [%]	viability at 10 µM (SKBR-3) [%]	viability at 10 µM (MCF-7) [%]	GI50 (MCF-10A) [µM]
82 to 84	–	–	–	–	Nc1nc(Nc2ccccc2Cl)nc(-c2ccccc2)n1 (hydrate or solvate) [Compound 4, N ^2-(2-Chlorophenyl)-6-phenyl-1,3,5-triazine-2,4-diamine]	–	–	–	–
138 to 139	–	–	–	–	Cc1cccc(-c2nc(N)nc(Nc3ccc(F)cc3)n2)c1 (hydrate or solvate) [Compound 53, N ^2-(4-Fluorophenyl)-6-(3-methylphenyl)-1,3,5-triazine-2,4-diamine]	–	–	–	–
150 to 152	–	–	–	–	COc1ccc(Nc2nc(N)nc(-c3cccc(C)c3)n2)cc1 (hydrate or solvate) [Compound 57, N ^2-(4-Methoxyphenyl)-6-(3-methylphenyl)-1,3,5-triazine-2,4-diamine]	–	–	–	–
134 to 136	–	–	–	–	Cc1cccc(-c2nc(N)nc(Nc3ccc(C(C)C)cc3)n2)c1 (hydrate or solvate) [Compound 59, N ^2-(4-Isopropylphenyl)-6-(3-methylphenyl)-1,3,5-triazine-2,4-diamine]	–	–	–	–
165 to 167	–	–	–	–	Nc1nc(Nc2ccccc2F)nc(-c2cccs2)n1 (hydrate or solvate) [Compound 116, N ^2-(2-Fluorophenyl)-6-(thiophen-2-yl)-1,3,5-triazine-2,4-diamine]	–	–	–	–
139 to 141	–	–	–	–	COc1ccc(Nc2nc(N)nc(-c3cccs3)n2)cc1 (hydrate or solvate) [Compound 123, N ^2-(4-Methoxyphenyl)-6-(thiophen-2-yl)-1,3,5-triazine-2,4-diamine]	–	–	–	–
156 to 158	–	–	–	–	Nc1nc(Nc2ccccc2F)nc(-c2ccccc2)n1 [Compound 2, N ^2-(2-Fluorophenyl)-6-phenyl-1,3,5-triazine-2,4-diamine]	82	83	99	–
172 to 174	–	–	–	–	Nc1nc(Nc2ccc(F)cc2)nc(-c2ccccc2)n1 [Compound 3, N ^2-(4-Fluorophenyl)-6-phenyl-1,3,5-triazine-2,4-diamine]	81	84	100	–
158 to 160	–	–	–	–	COc1ccc(Nc2nc(N)nc(-c3ccc(F)cc3)n2)cc1 [Compound 30, 6-(4-Fluorophenyl)-N^2-(4-methoxyphenyl)-1,3,5-triazine-2,4-diamine]	74	90	92	–
154 to 156	–	–	–	–	Nc1nc(Nc2ccccc2)nc(-c2ccc(Cl)cc2)n1 [Compound 34, 6-(4-Chlorophenyl)-N^2-phenyl-1,3,5-triazine-2,4-diamine]	81	100	100	–
163 to 165	14.1	–	–	–	COc1ccc(Nc2nc(N)nc(-c3ccc(OC)cc3)n2)cc1 [Compound 71, N ^2,6-Bis(4-methoxyphenyl)-1,3,5-triazine-2,4-diamine]	56	93	95	–
150 to 152	–	–	–	–	Nc1nc(Nc2ccc(F)cc2)nc(-c2ccc(C(F)(F)F)cc2)n1 [Compound 84, N ^2-(4-Fluorophenyl)-6-(4-(trifluoromethyl)phenyl)-1,3,5-triazine-2,4-diamine]	95	98	100	–
139 to 140	–	–	–	–	Nc1nc(Nc2ccc(F)cc2)nc(-c2ccc(OC(F)(F)F)cc2)n1 [Compound 91, N ^2-(4-Fluorophenyl)-6-(4-(trifluoromethoxy)phenyl)-1,3,5-triazine-2,4-diamine]	53	86	100	–
–	7.24	7.2 ± 0.94	> 20	> 20	CN(C)c1ccc(-c2nc(N)nc(Nc3ccc(F)cc3)n2)cc1 [Compound 102]	32	88	90	> 25
–	4.17	4.17 ± 0.33	3.63 ± 0.23	> 20	COc1ccccc1Nc1nc(N)nc(-c2ccc(N(C)C)cc2)n1 [Compound 103]	28	48	88	> 25
–	13.5	13.4 ± 1.18	> 20	> 20	Nc1nc(Nc2ccccc2)nc(-c2ccc(OCc3ccccc3)cc2)n1 [Compound 110]	51	75	100	> 25
177 to 179	–	–	–	–	Nc1nc(Nc2ccc(F)cc2)nc(-c2ccc(OCc3ccccc3)cc2)n1 [Compound 111, 6-(4-(Benzyloxy)phenyl)-N^2-(4-fluorophenyl)-1,3,5-triazine-2,4-diamine]	69	84	89	–
–	11.7	11.7 ± 1.39	> 20	> 20	Nc1nc(Nc2ccc(Br)cc2)nc(-c2cccs2)n1 [Compound 120]	46	87	88	> 25
–	13.8	13.9 ± 1.74	> 20	> 20	Cc1ccc(Nc2nc(N)nc(-c3cccs3)n2)cc1 [Compound 121]	49	95	97	> 25
165 to 167	–	–	–	–	COc1ccccc1Nc1nc(N)nc(-c2cccs2)n1 [Compound 122, N ^2-(2-Methoxyphenyl)-6-(thiophen-2-yl)-1,3,5-triazine-2,4-diamine]	78	97	91	–
